Experimental data from patent US20120172340A1, “Compositions and Methods for Selectively Activating Human Sirtuins” (BIOMOL International L.P., priority 2004, published 2012).
“Also recorded” adds a separate entry of the source.

Experiments:
[1] = molecular target: T1, human SIRT1 (Homo sapiens, UniProt Q96EB6); experiment: SIRT1 rate measurement, fluorogenic p53-382 peptide deacetylation; assay type: biochemical; conditions: 100 μM test compounds; 25 μM NAD+, 25 μM p53-382 peptide
T1 construct: made in house; host or cells: E. coli
T1 sequence (Q96EB6 1-747): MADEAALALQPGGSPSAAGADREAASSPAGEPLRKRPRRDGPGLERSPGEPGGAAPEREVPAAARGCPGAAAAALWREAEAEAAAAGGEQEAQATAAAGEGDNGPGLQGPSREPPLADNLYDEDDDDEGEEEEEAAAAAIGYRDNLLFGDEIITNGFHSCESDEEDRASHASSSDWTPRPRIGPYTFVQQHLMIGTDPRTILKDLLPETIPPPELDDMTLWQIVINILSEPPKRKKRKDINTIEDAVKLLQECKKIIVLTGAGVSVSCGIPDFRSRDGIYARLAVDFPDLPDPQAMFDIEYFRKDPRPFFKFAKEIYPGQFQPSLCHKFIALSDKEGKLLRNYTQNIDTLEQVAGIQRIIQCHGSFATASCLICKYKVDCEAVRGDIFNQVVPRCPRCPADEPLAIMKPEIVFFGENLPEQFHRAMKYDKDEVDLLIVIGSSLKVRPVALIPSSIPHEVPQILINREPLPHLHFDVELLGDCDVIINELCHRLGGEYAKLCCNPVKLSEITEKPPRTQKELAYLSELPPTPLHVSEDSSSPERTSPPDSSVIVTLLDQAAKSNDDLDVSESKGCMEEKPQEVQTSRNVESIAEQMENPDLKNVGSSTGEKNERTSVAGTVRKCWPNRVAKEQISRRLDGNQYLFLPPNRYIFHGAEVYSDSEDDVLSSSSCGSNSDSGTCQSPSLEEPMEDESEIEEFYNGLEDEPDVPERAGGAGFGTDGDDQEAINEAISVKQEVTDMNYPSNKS

[2] = molecular target: T2, human SIRT5 (Homo sapiens, UniProt Q9NXA8); experiment: SIRT5 rate measurement, fluorogenic p53-382 peptide deacetylation; assay type: biochemical; design: His6 (histidine tag, 2.5 kDa) (N); made in house; host or cells: E. coli; conditions: for relative activation of SIRT5 versus SIRT1 (in words): comparison of Table 2 SIRT5 and SIRT1 data
T2 sequence (Q9NXA8 37-310): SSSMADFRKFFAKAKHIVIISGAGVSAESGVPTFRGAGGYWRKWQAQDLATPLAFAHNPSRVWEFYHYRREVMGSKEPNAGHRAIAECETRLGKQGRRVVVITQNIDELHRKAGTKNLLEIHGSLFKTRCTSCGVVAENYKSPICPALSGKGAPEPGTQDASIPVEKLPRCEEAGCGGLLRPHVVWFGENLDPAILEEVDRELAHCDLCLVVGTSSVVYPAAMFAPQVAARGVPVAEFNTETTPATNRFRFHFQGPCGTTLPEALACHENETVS

[3] = 200 μM test compounds, 500 μM NAD+, 100 μM p53-382 peptide

SIRT1 Ratio to Control Rates Mean ± SE Compounds at 100 μM [1] | SIRT5 Ratio of Control Rates Mean ± SE Compounds at 200 μM [2, 3] | identified as human SIRT5 inhibitor [2] | maximum stimulation observed for SIRT1, increase in activity [1] | maximum stimulation observed for SIRT5, increase in activity [2, 3] | SMILES | relative activation of SIRT5 versus SIRT1 (in words) [2]
6.01 ± 0.15 | 8.41 ± 0.22 |  |  |  | CC(C)c1ccc(/C=C/c2cc(O)cc(O)c2)cc1 [BML-231, 3,5-Dihydroxy-4′-isopropyl-trans-stilbene] | 
1.88 ± 0.11 | 2.26 ± 0.17 |  |  |  | CC(=O)Nc1ccc(/C=C/c2cc(O)cc(O)c2)cc1 [BML-222, 3,5-Dihydroxy-4′-acetamide-trans-stilbene] | 
1.26 ± 0.12 | 2.49 ± 0.29 |  |  |  | Oc1cc(O)cc(/C=C/c2ccncc2)c1 [BML-236, (E)-1-(3,5-Dihydroxyphenyl)-2-(4-pyridyl)ethene] | 
 | 3.10 ± 0.016 |  |  |  | COc1cc(O)cc(/C=C/c2ccc(NC(C)=O)cc2)c1 [BML-223, 3-methoxy-5-hydroxy-4′-acetamido-trans-stilbene] | 
12.6 ± 0.4 | 2.12 ± 0.34 |  | 12.6 fold |  | CCSc1ccc(/C=C/c2cc(O)cc(O)c2)cc1 [BML-243, 3,5-Dihydroxy-4′-thioethyl-trans-stilbene] | selective activators of SIRT1 as compared to SIRT5; also recorded: relatively less potent SIRT5 activators
10.6 ± 0.4 | 13.6 ± 0.4 |  |  | 13.6 fold | Oc1cc(O)cc(/C=C/c2ccc(Cl)cc2)c1 [BML-217, 3,5-Dihydroxy-4′-chloro-trans-stilbene] | potent activator of SIRT5 and SIRT1

Continued, compound first:

SMILES | SIRT1 Ratio to Control Rates Mean ± SE Compounds at 100 μM [1] | SIRT5 Ratio of Control Rates Mean ± SE Compounds at 200 μM [2, 3] | identified as human SIRT5 inhibitor [2] | maximum stimulation observed for SIRT1, increase in activity [1] | maximum stimulation observed for SIRT5, increase in activity [2, 3] | relative activation of SIRT5 versus SIRT1 (in words) [2]
CC(Cc1ccc(O)c(O)c1)C(C)Cc1ccc(O)c(O)c1 (centres unmarked) [NDGA, Nordihydroguaiaretic acid] | 1.738 ± 0.088 | 1.91 ± 0.02 |  |  |  | 
O=c1c(O)c(-c2ccc(O)c(O)c2)oc2cc(O)ccc12 [Fisetin, 3,7,3′,4′-Tetrahydroxyflavone] | 6.58 ± 0.69 | 2.61 ± 0.19 |  |  |  | relatively less potent SIRT5 activation
Cc1ccc(NC(=O)c2cccc(N(C)C)c2)cc1NC(=O)c1ccc(O)cc1 [ZM 336372, N-[5-(3-dimethylaminobenzamido)-2-methylphenyl]-4-hydroxybenzamide] | 3.5 ± 1.1 | 0.74 ± 0.05 | SIRT5 inhibitors |  |  | selective activators of SIRT1 as compared to SIRT5
Oc1ccc(/C=C/c2ccccc2)cc1O [3,4-Dihydroxy-trans-stilbene] | 1.64 ± 0.10 | 0.58 ± 0.25 | SIRT5 inhibitors |  |  | 
Oc1cc(O)cc(/C=C/c2ccc(O)c(O)c2)c1 [Piceatannol, 3,5,3′,4′-Tetrahydroxy-trans-stilbene] | 7.90 ± 0.50 | 3.23 ± 0.21 |  |  |  | relatively more potent at activating SIRT1 than SIRT5
Oc1cc(O)cc(/C=C/c2ccccc2)c1 [Pinosylvin, 3,5-Dihydroxy-trans-stilbene] | 9.95 ± 0.45 | 2.71 ± 0.092 |  |  |  | relatively more potent at activating SIRT1 than SIRT5
CC(=O)Oc1ccc(/C=C/c2cc(O)cc(O)c2)cc1 [BML-221, 3,5-Dihydroxy-4′-acetoxy-trans-stilbene] | 3.05 ± 0.54 | 2.89 ± 0.15 |  |  |  | 
COc1ccc(/C=C/c2ccccc2)cc1 [4-Methoxy-trans-stilbene] | 0.84 ± 0.09 | 0.79 ± 0.20 | SIRT5 inhibitors |  |  | 
